Data: patent US20230227917A1, “PREDICTING RESPONSE TO PD-1 AXIS INHIBITORS” (Hoffmann-La Roche Inc., priority 2020, published 2023)

What was measured:
Assay type in all cases: in vivo, human
[1] = test system: patients with locally advanced or metastatic Non-Small Cell Lung Cancer; assay: Survival by stem cell score, Phase III trial OAK (NCT02008227), Atezolizumab vs Docetaxel; conditions: for HR overall survival, score low vs high: within treatment
From the text: We hypothesized that patients with a low abundance of stem cell maintenance-related cancer cells may respond to PD-L1 blockade leading to beneficial effect in patients who received the treatment. We analyzed 739 patients with non-small cell lung cancer who received Atezolizumab (MPDL3280A, n=358) and Docetaxel (n=381) in a Phase III clinical trial (NCT02008227, OAK) (https://clinicaltrials.gov/ct2/show/NCT02008227). This study was sponsored by Genentech Inc., a member of the Roche Group, which provided the study drug.
The protocol and its amendments were approved by the relevant institutional review boards or ethics committees, and all participants provided written informed consent. This study was conducted in accordance with the Declaration of Helsinki and International Conference on Harmonization Guidelines for Good Clinical Practice. Tumor specimens at baseline were archived and taken for gene expression profiling performed by RNA Sequencing (RNA-Seq). In total, 144 human stem cell related genes derived from Gene Ontology were selected and further processed resulting in a selected a list of 4 genes consisting of ASPM, CNOT3, LRPS, and PBX1, which are associated with abundance of stem cell maintenance-related cancer cells. The log2 CPM expression values of each selected gene across the whole cohort were divided at medium expression level for the higher expression ones (+) and lower/no expression ones (−). Using in-house R scripts, the two defined subgroups were plotted against the Kaplan-Meier survival curves.
(§1) As several genes linked to stem cell maintenance-related cancer cells were associated with the survival advantages, we investigated the impact of multiple genes involved in stem cell maintenance-related cancer cells by defining a cumulative cancer stem cell gene score reflecting the cumulative expression of these marker genes. Each gene's expression is first standardized by a z-score:
(§2) where μ and μ are estimated in the entire cohort or in the selected subgroups. After the standardization step, these standardized z-score values are averaged across genes within each patient. The OAK cohort was corrected for the sex of patient, age, histolog as well as PD-L1 status. […] In addition, we also identified an advantage in progression-free survival.

[2] = test system: patients with locally advanced or metastatic Non-Small Cell Lung Cancer; assay: Survival by stem cell score, Phase II trial BIRCH (NCT02031458), Atezolizumab
From the text: (§3) We hypothesized that patients with a low abundance of stem cell maintenance-related cancer cells may respond to PD-L1 blockade leading to beneficial effect in patients who received the treatment. We analyzed 597 patients with non-small cell lung cancer who received Atezolizumab in a Phase II clinical trial (NCT02031458, BIRCH) (https://clinicaltrials.gov/ct2/show/NCT02031458). This study was sponsored by Genentech Inc., a member of the Roche Group, which provided the study drug. The protocol and its amendments were approved by the relevant institutional review boards or ethics committees, and all participants provided written informed consent. This study was conducted in accordance with the Declaration of Helsinki and International Conference on Harmonization Guidelines for Good Clinical Practice.
(§4) Tumor specimens at baseline were archived and taken for gene expression profiling performed by RNA Sequencing (RNA-Seq).). In total, 144 human stem cell related genes derived from Gene Ontology were selected and further processed resulting in a selected a list of 4 genes consisting of ASPM, CNOT3, LRPS, and PBX1, which are associated with abundance of stem cell maintenance-related cancer cells. The log2 CPM expression values of each selected gene across the whole cohort were divided at medium expression level for the higher expression ones (+) and lower/no expression ones (−). Using in-house R scripts, the two defined subgroups were plotted against the Kaplan-Meier survival curves. […] Table 2 summarizes the median survival as well as HR per single gene used for the stem cell maintenance-related cancer cells signature.
as §1
as §2, with “BIRCH” for “OAK”, “age” for “age, histolog”, “smoking” for “PD-L1”

[3] = test system: patients with locally advanced or metastatic Urothelial Bladder Cancer; assay: Survival by stem cell score, Phase III trial IMvigor211 (NCT02302807), Atezolizumab vs standard of care
From the text: as §3, with “750” for “597”, “locally advanced or metastatic urothelial bladder” for “non-small cell lung”, “Atezolizumab (n=369), Paclitaxel (n=123), Vinflunine (n=194) or Docetaxel (n=41)” for “Atezolizumab”, “III” for “II”, “(NCT02302807, IMvigor 211) (https://clinicaltrials.gov/ct2/show/NCT02302807).” for “(NCT02031458, BIRCH) (https://clinicaltrials.gov/ct2/show/NCT02031458).”
as §4, with “Sequencing (RNA-Seq).” for “Sequencing (RNA-Seq).).”, “Table 3” for “Table 2”
as §1
as §2, with “IMvigor211” for “OAK”, “age” for “age, histolog”, “smoking” for “PD-L1”, “adavantage” for “advantage”

[4] = cumulative cancer stem cell score (ASPM, CNOT3, LRP5, PBX1) low
[5] = cumulative cancer stem cell score high
[6] = cumulative cancer stem cell score
[7] = gene ASPM, Stem cell score high
[8] = gene CNOT3, Stem cell score high
[9] = gene CNOT3, Stem cell score low
[10] = gene LRP5, Stem cell score high
[11] = gene PBX1, Stem cell score high
[12] = cumulative cancer stem cell score low

## CC(=O)O[C@@]12CO[C@@H]1C[C@H](O)[C@@]1(C)C(=O)[C@H](O)C3=C(C)[C@@H](OC(=O)[C@H](O)[C@@H](NC(=O)OC(C)(C)C)c4ccccc4)C[C@@](O)([C@@H](OC(=O)c4ccccc4)[C@H]21)C3(C)C [Docetaxel]
[1]; [4]
  median overall survival: 334 days
[1]; [5]
  median overall survival: 282 days
[1]; [6]
  HR overall survival, score low vs high: 0.76
[1]; [7]
  Median survival: 270 days
[1]; gene ASPM, Stem cell score low
  Median survival: 365 days
[1]; [8]
  Median survival: 299 days
[1]; [9]
  Median survival: 339 days
[1]; [10]
  Median survival: 320 days
[1]; gene LRP5, Stem cell score low
  Median survival: 312 days
[1]; [11]
  Median survival: 262 days
[1]; gene PBX1, Stem cell score low
  Median survival: 356 days

## atezolizumab
[2]; [6]
  HR overall survival, score low vs high: 0.77
  HR progression-free survival, score low vs high: 0.74
[2]; [5]
  median overall survival: ~437 days
  median progression-free survival: ~89 days
[2]; [12]
  median overall survival: ~583 days
  median progression-free survival: ~127 days
[2]; gene ASPM
  HR (low vs high): HR: 0.78
[2]; [7]
  Median survival: 457 days
[2]; gene ASPM, Stem cell score low
  Median survival: 566 days
[2]; gene CNOT3
  HR (low vs high): HR: 0.88
[2]; [8]
  Median survival: 482 days
[2]; [9]
  Median survival: 510 days
[2]; gene LRP5
  HR (low vs high): HR: 1.02
[2]; [10]
  Median survival: 498 days
[2]; gene LRP5, Stem cell score low
  Median survival: 471 days
[2]; gene PBX1
  HR (low vs high): HR: 1.02
[2]; [11]
  Median survival: 510 days
[2]; gene PBX1, Stem cell score low
  Median survival: 471 days
[1]; [6]
  HR progression-free survival, score low vs high: 0.69
  HR overall survival, score low vs high: 0.67
[1]; [4]
  median overall survival: 492 days
[1]; [5]
  median overall survival: ~257 days
  median progression-free survival: ~51 days
[1]; [12]
  median progression-free survival: ~86 days
[1]; cumulative stem cell score low group, Atezolizumab vs Docetaxel
  HR overall survival, predictive effect for Atezolizumab: 0.72
[1]; [7]
  Median survival: 256 days
[1]; gene ASPM, Stem cell score low
  Median survival: 467 days
[1]; gene ASPM, Stem cell score low, Atezolizumab vs Docetaxel
  HR (Atezo vs SoC): HR: 0.84
[1]; gene ASPM, score low vs high within treatment
  HR (low vs high): HR: 0.65
[1]; [8]
  Median survival: 337 days
[1]; [9]
  Median survival: 433 days
[1]; gene CNOT3, Stem cell score low, Atezolizumab vs Docetaxel
  HR (Atezo vs SoC): HR: 0.83
[1]; gene CNOT3, score low vs high within treatment
  HR (low vs high): HR: 0.89
[1]; [10]
  Median survival: 384 days
[1]; gene LRP5, Stem cell score low
  Median survival: 405 days
[1]; gene LRP5, Stem cell score low, Atezolizumab vs Docetaxel
  HR (Atezo vs SoC): HR: 0.83
[1]; gene LRP5, score low vs high within treatment
  HR (low vs high): HR: 0.97
[1]; [11]
  Median survival: 329 days
[1]; gene PBX1, Stem cell score low
  Median survival: 456 days
[1]; gene PBX1, Stem cell score low, Atezolizumab vs Docetaxel
  HR (Atezo vs SoC): HR: 0.92
[1]; gene PBX1, score low vs high within treatment
  HR (low vs high): HR: 0.89
[3]; [6]
  HR overall survival, score low vs high: 0.64
  HR progression-free survival, score low vs high: 0.69
[3]; [5]
  median overall survival: ~211 days
  median progression-free survival: ~63 days
[3]; [12]
  median overall survival: ~357 days
  median progression-free survival: ~66 days
[3]; cumulative stem cell score low groups, Atezolizumab vs standard of care
  HR overall survival, predictive effect for Atezolizumab: 0.70
[3]; gene ASPM
  HR (low vs high): HR: 1.05
[3]; [7]
  Median survival: 271 days
[3]; gene ASPM, Stem cell score low
  HR (Atezo vs SoC): HR: 0.93
  Median survival: 257 days
[3]; gene CNOT3
  HR (low vs high): HR: 0.85
[3]; [8]
  Median survival: 242 days
[3]; [9]
  HR (Atezo vs SoC): HR: 0.83
  Median survival: 297 days
[3]; gene LRP5
  HR (low vs high): HR: 0.76
[3]; [10]
  Median survival: 241 days
[3]; gene LRP5, Stem cell score low
  HR (Atezo vs SoC): HR: 0.74
  Median survival: 298 days
[3]; gene PBX1
  HR (low vs high): HR: 0.74
[3]; [11]
  Median survival: 247 days
[3]; gene PBX1, Stem cell score low
  HR (Atezo vs SoC): HR: 0.67
  Median survival: 279 days
